In BindingDB's records for doi:10.1021/jm00394a022 (Pennsylvania State University, 1987):

What was measured:
[1] = target: Glutamine synthetase (Pisum sativum); assay: Compound was evaluated for binding affinity by the inhibition of Glutamine synthetase (Pea seed) activity using biosynthetic assay [noncompetitive inhibition]
[2] = target: Glutamine synthetase (Escherichia coli) (UniProt P0A9C5); assay: Compound was evaluated for binding affinity by the inhibition of Glutamine synthetase (Escherichia coli) activity using biosynthetic assay [mixed Non-competitive inhibition]
Glutamine synthetase (Escherichia coli), sequence (P0A9C5 whole entry, looked up): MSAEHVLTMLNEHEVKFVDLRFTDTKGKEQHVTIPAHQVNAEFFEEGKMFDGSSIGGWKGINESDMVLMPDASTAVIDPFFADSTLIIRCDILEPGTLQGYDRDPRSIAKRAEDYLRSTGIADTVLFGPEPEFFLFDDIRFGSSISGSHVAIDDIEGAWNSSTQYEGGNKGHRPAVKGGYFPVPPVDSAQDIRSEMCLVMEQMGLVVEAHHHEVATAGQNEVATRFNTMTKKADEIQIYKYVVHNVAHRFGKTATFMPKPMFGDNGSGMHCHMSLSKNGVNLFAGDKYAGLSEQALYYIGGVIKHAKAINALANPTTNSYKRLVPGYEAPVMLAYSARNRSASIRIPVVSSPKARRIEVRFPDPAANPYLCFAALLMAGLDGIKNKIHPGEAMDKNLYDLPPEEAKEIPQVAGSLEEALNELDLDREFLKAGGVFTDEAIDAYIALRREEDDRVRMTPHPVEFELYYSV

[3] = target: Glutamine synthetase (Ovis aries); assay: Compound was evaluated for binding affinity by the inhibition of Glutamine synthetase (Ovine brain) activity using biosynthetic assay [competitive inhibition]

SMILES: NC(CCP(=O)(O)CP(=O)(O)O)C(=O)O (stereo not drawn) [2-ammonio-4-[hydroxy(phosphonomethyl)phosphoryl]butanoate]
- Ki [1]: 250 µM
- Ki [2]: 75 µM
- Ki [3]: 750 µM
